Measurements taken from BindingDB's records for doi:10.1021/acs.jmedchem.1c00408 (Virginia Commonwealth University, 2021).

Columns and labels:
[1] = Inhibition of MOR-mediated HIV1 BaL01 infection in GFP-tagged human OPRM1 transfected TZM-bl cells co-expressing HIV1 - LTR assessed as inhibition of viral entry in presence of morphine by measuring LTR-driven luciferase activity pretreated for 1 hr before infection measured after 2 to 3 days of infection
[2] = Inhibition of CCR5-mediated HIV-1 Bal entry in human GHOST CCR5 cells assessed as decrease in viral reverse transcriptase activity by measuring [3H]thymidine triphosphate incorporation measured after 60 to 90 mins by scintillation counting analysis
[3] = Inhibition of MOR-mediated HIV1 BaL01 infection in GFP-tagged human OPRM1 transfected TZM-bl cells co-expressing HIV1 - LTR assessed as inhibition of viral entry by measuring LTR-driven luciferase activity pretreated for 1 hr before infection measured after 2 to 3 days of infection

CC(C)c1nnc(CCNC(=O)COCC(=O)NCCCCCCCNC(=O)COCC(=O)N[C@@H]2CC[C@@]3(O)[C@H]4Cc5ccc(O)c6c5[C@@]3(CCN4CC3CC3)[C@H]2O6)n1C1C[C@H]2CC[C@@H](C1)N2CC[C@H](NC(=O)C1CCC(F)(F)CC1)c1ccccc1 (some centres undefined)
EC50 [1]: 247 nM
EC50 [2]: 93 nM
EC50 [3]: 368 nM

Cc1nnc(C(C)C)n1C1C[C@H]2CC[C@@H](C1)N2CC[C@H](NC(=O)C1CCC(F)(F)CC1)c1ccc(NC(=O)COCC(=O)NCCCCCCCNC(=O)COCC(=O)N[C@@H]2CC[C@@]3(O)[C@H]4Cc5ccc(O)c6c5[C@@]3(CCN4CC3CC3)[C@H]2O6)cc1 (some centres undefined)
EC50 [2]: > 100000 nM
